Test results published in patent publication US20220153780A1, “SALT FORMS OF S-(N, N-DIETHYLCARBAMOYL)GLUTATHIONE” (Tonix Pharma Holdings Limited, priority 2019, published 2022).
“Also recorded” adds a separate entry of the source.

Assays:
Assay type in all cases: physicochemical
[1] = Dissolution temperature in buffers (Crystal16) and estimated solubility at 25° C.
Method: Three different buffer solutions were prepared according to European Pharmacopoeia procedures (pH 1.2), or by diluting commercially available concentrate buffer solutions (pH 4.5 and 6.8).
Phosphate buffer at pH 6.8 was prepared by diluting a commercially available concentrate solution (Reagecon) with HPLC grade water. The final pH was adjusted using a 1 M NaOH solution.
Acetate buffer at pH 4.5 was prepared by diluting a commercially available concentrate solution (Reagecon) with HPLC grade water. The final pH was adjusted using concentrated acetic acid and a 1 M NaOH solution.
A buffer at pH 1.2 was prepared by mixing NaCl (0.2 M, 125 mL) and HCl (0.2 M, 212.5 mL) solutions followed by adjusting the volume to 500 mL. The pH was adjusted with a 1 M NaOH solution.
The determination of the dissolution temperature was performed in the automatic reactor system Crystal16. The system allows for careful control of the temperature and is equipped with a turbidimeter enabling the detection of the complete dissolution of the solid. The proper amount of compound was accurately weighted in a 1.5 mL vial equipped with a magnetic stirring bar. The selected buffer solution was pre-cooled in a refrigerator and the proper volume was added to the vial. The suspension was placed in the automatic reactor system pre-cooled at 10° C. and stirred at 600 rpm. The temperature was kept constant for 5 minutes to allow the system to equilibrate. The temperature was then increased at 0.5° C./min until a clear solution was obtained. For each pH, four solutions with increasing concentration were prepared and subjected to the same temperature program.
Although this is incorrect from a theoretical point of view, the closeness of the experimental value at 24° C. limited the error made by using this simple approximation.
Although this is incorrect from a theoretical point of view, the closeness of the experimental value at 26° C. limited the error made by using this simple approximation.

[2] = Water solubility observed in slurry experiment in water; conditions: room temperature; equimolar L-lysine adduct
Method: (§1) Carbamathione (50 mg) and one equivalent of L-Lysine were weighed in an 8-mL glass vial. Water (1-2 mL) was added and the mixture was allowed to stir for 24 hours. The equimolar mixture of carbamathione and L-Lysine was soluble in water and no precipitate was observed after 24 hours of stirring. The solution was left to evaporate at high temperature (60° C.) and an off-white solid was isolated. XRPD analysis confirmed the recovery of new derivative TNX1001-LLYS-NP01 (FIG. 15).
The synthesis of the new derivative, TNX1001-LLYS-NP01, was carried out to facilitate its complete characterization. TNX1001-SM (150 mg) and L-Lysine (1 eq., 54 mg) were accurately weighed in a vial equipped with a magnetic stirring bar. H2O (3 ml) was added and the mixture was stirred at room temperature for 4 hours until a clear solution was obtained. The solution was filtered through a 0.45 μm RC-filter and the filtrate was evaporated at high temperature (60° C.). The recovered off-white solid was compared with the sample that was obtained from the slurry experiments in water by XRPD analysis to confirm the recovery of desired derivative (FIG. 26). The product was completely characterized using the methods outlined in Table 8 (see FIGS. 27-33).

[3] = Solid form stability by XRPD (ambient conditions, humidity, drying)
Method: as §1
After 24 hours of stirring, the solid was collected and analyzed by XRPD, and a new diffraction pattern was observed (FIG. 18). This new pattern was labeled as TNX1001-LLYS-NP02. […] After the drying step, the sample was exposed to humidity for 24 hours and the diffractogram acquired again.
From the experiments carried out with L-lysine in organic media, a second new diffraction pattern was also observed, in particular when an equimolar mixture of TNX1001-SM and L-lysine co-former was slurried at room temperature for 24 hours in Methanol or Dichloromethane (TNX1001-LLYS-NP02).

[4] = Dynamic vapor sorption (DVS) analysis
Method: The anhydrous carbamathione lysine salt (TNX1001-LLYS-NP01) was subjected to dynamic vapor sorption (DVS) analysis (FIG. 35). […] Similarly, the desorption curves display a clear decrease in mass between 30% and 20% RH. This behavior is consistent with a compound forming a hydrate species. Additionally, based on the water uptake of approximately 6.1% w/w at 70% RH, the hydrated form of the salt is likely a dihydrate species (FIG. 36).
The sorption/desorption cycle was performed twice.

[5] = Stability studies, one month storage at controlled temperature and humidity, XRPD
Method: Approximately 50 mg of the anhydrous carbamathione lysine salt was placed in a glass vial crimped with a PTFE/silicone septum and stored at the desired temperature and humidity for one month. Controlled humidity was realized employing saturated solutions of salts: NaCl for 75% RH at 40° C. and NaBr for 60% RH at 25° C. After storage, the samples were analyzed by XRPD analysis. Each stability test was performed in duplicate.

Solubility TNX1001-LYS ([1]; pH 1.2): Not stable. TNX1001
stability in buffer ([1]; pH 1.2 (NaCl/HCl buffer), converted into the parent carbamathione): not stable
Tdiss. ([1]; pH 1.2 buffer, Conc. TNX1001-LYS 297 mg/mL (79 after dilution)): Dissolve and re-precipitate
Tdiss. ([1]; pH 1.2 buffer, Conc. TNX1001-LYS 349 mg/mL, after dilution to 93 mg/mL): Dissolves above 80 °C
Tdiss. ([1]; pH 1.2 buffer, Conc. TNX1001-LYS 400 mg/mL, after dilution to 107 mg/mL): Dissolves above 80 °C
Tdiss. ([1]; pH 1.2 buffer, Conc. TNX1001-LYS 455 mg/mL, after dilution to 121 mg/mL): Dissolves above 80 °C
solubility increase compared with free carbamathione ([1]; pH 4.5, 25° C.): approximately 17%
Solubility TNX1001-LYS ([1]; pH 4.5, 25° C., estimated by linear approximation, equivalent amount of TNX1001 dissolved): 299 mg/mL of TNX1001
Tdiss. ([1]; pH 4.5 acetate buffer, Conc. TNX1001-LYS 249 mg/mL): <10 °C
Tdiss. ([1]; pH 4.5 acetate buffer, Conc. TNX1001-LYS 299 mg/mL): 16 °C
Tdiss. ([1]; pH 4.5 acetate buffer, Conc. TNX1001-LYS 356 mg/mL): 26 °C
Tdiss. ([1]; pH 4.5 acetate buffer, Conc. TNX1001-LYS 401 mg/mL): 33 °C
solubility increase compared with free carbamathione ([1]; pH 6.8, 25° C.): approximately 10%
Solubility TNX1001-LYS ([1]; pH 6.8, 25° C., estimated by linear approximation, equivalent amount of TNX1001 dissolved): 255 mg/mL of TNX1001
Tdiss. ([1]; pH 6.8 phosphate buffer, Conc. TNX1001-LYS 199 mg/mL): <10 °C
Tdiss. ([1]; pH 6.8 phosphate buffer, Conc. TNX1001-LYS 223 mg/mL): <10 °C
Tdiss. ([1]; pH 6.8 phosphate buffer, Conc. TNX1001-LYS 340 mg/mL): 24 °C
Tdiss. ([1]; pH 6.8 phosphate buffer, Conc. TNX1001-LYS 397 mg/mL): 33 °C
water solubility as compared to free carbamathione [2]: clear improvement
stability of the solid form under ambient conditions (XRPD) ([3]; after 24 hours and up to 4 days): good stability; also recorded: stable
water uptake (DVS) ([4]; at 70% RH): approximately 6.1 % w/w
water uptake and water release over two sorption/desorption cycles ([4]; hydrated and anhydrous species): reversibly
solid state stability (XRPD) ([5]; one month at 25° C. and 60% RH): stable
solid state stability (XRPD) ([5]; one month at 40° C. and 75% RH): stable
Structure (SMILES): CCN(CC)C(=O)SC[C@H](NC(=O)CC[C@H](N)C(=O)O)C(=O)NCC(=O)O.NCCCC[C@H](N)C(=O)O [TNX1001-LLYS-NP01]
solid form after exposure of the dried sample to humidity (XRPD) ([3]; approximately 24 hours, ambient conditions): converted spontaneously to initial form TNX1001-LLYS-NP02; also recorded: reconversion of the NP01 form into the NP02 form
